Experimental data: paper PMC7146544, “Dual Plasmepsin-Targeting Antimalarial Agents Disrupt Multiple Stages of the Malaria Parasite Life Cycle” (Cell Host & Microbe, 2020)

Key:
[1] = target: T1, P. falciparum aspartic protease, PMV (Plasmodium falciparum, UniProt Q8I6Z5); assay: Peptide cleavage (FRET) assay, PMV; format: biochemical; conditions: calculated from IC50 with Cheng-Prusoff equation
T1 construct: made in house

HepG2 cells = assay: EC50 for HepG2 cells; format: cell-based; conditions: Homo sapiens
PMIX = assay: CETSA thermal stability assay, PMIX; format: binding, P. falciparum
Protocol: Lysate CETSA experiments were conducted essentially as described ([Dziekan et al., 2019]). Samples for CETSA studies were prepared using highly synchronous schizont stage P. falciparum 3D7-PMIX_HA and 3D7-PMX_HA parasites. Late-stage parasites (40–44 h post-invasion) were purified by Percoll density gradient and incubated with 1 μM compound 1 (C1) inhibitor (synthesized in-house) ([Hale et al., 2017]). After 2–4 h incubation, mature schizonts were washed once with PBS and pelleted infected red blood cells were lysed in 20 volumes of 0.15% (w/v) saponin in PBS and incubated on ice for 20 min. Parasites were washed 3 times in ice-cold PBS and the final pellet was resuspended in 10 volumes of lysis buffer (0.4% NP-40 (Roche) / PBS) and lysed by three freezing (dry ice/ethanol bath) - thawing cycles. The lysates were cleared by centrifugation at 16,000 g for 30 min and the supernatant containing soluble parasite proteins kept at −80°C until use. […] After blocking the membrane in 5% non-fat milk in TBST (M-TBST), PMIX_HA and PMX_HA were detected with anti-HA mAb 12CA5 (produced in-house) followed by HRP-conjugated a-mouse IgG Abs (Merck). Blots were developed with ECL Western Blotting Substrate (Thermo Fisher Scientific), and the images were generated and analyzed using ChemiDoc Gel Imaging System and Image Lab Software (Bio-Rad).

PMX = target: T2, PMX (Plasmodium falciparum, UniProt Q8IAS0); format: binding, P. falciparum; conditions: CETSA
T2 construct: endogenous in cells
Protocol: Lysate CETSA experiments were conducted essentially as described ([Dziekan et al., 2019]). Samples for CETSA studies were prepared using highly synchronous schizont stage P. falciparum 3D7-PMIX_HA and 3D7-PMX_HA parasites. […] After 2–4 h incubation, mature schizonts were washed once with PBS and pelleted infected red blood cells were lysed in 20 volumes of 0.15% (w/v) saponin in PBS and incubated on ice for 20 min. Parasites were washed 3 times in ice-cold PBS and the final pellet was resuspended in 10 volumes of lysis buffer (0.4% NP-40 (Roche) / PBS) and lysed by three freezing (dry ice/ethanol bath) - thawing cycles. The lysates were cleared by centrifugation at 16,000 g for 30 min and the supernatant containing soluble parasite proteins kept at −80°C until use. […] The proteins were electrophoretically transferred to nitrocellulose membrane using a dry-blotting system (iBlot, Thermo Fisher Scientific). After blocking the membrane in 5% non-fat milk in TBST (M-TBST), PMIX_HA and PMX_HA were detected with anti-HA mAb 12CA5 (produced in-house) followed by HRP-conjugated a-mouse IgG Abs (Merck). Blots were developed with ECL Western Blotting Substrate (Thermo Fisher Scientific), and the images were generated and analyzed using ChemiDoc Gel Imaging System and Image Lab Software (Bio-Rad).

[2] = tested on: P. falciparum 3D7-PMIX-HA; assay: EC50 in knock down parasite line 3D7-PMIX-HA; format: cell-based, Plasmodium falciparum; conditions: presence vs absence of 2.5 mM GlcN
3D7 parasite cultures = assay: Time of drug killing; format: cell-based, Plasmodium falciparum; conditions: 80nM WM4, 40nM WM5, 5nM WM382, added to early rings
Protocol: 3D7 parasite cultures were synchronized using 5% sorbitol (Sigma) twice at 46 h intervals then again when the culture was a mix of late schizonts and early rings. […] The parasitemia of each culture was quantitated every 8 h for 48 h by collecting 50 μL samples for counting by flow cytometry (as previously described). The developmental stage of the parasites was confirmed at each time point by microscopic examination of Giemsa stained thin blood films. Media and compound were replaced at the 32 h time point.

[3] = tested on: P. falciparum merozoites (3D7); assay: Invasion assay; format: cell-based, Plasmodium falciparum; conditions: 40 nM WM4; 2.5 nM WM382; merozoites released by mechanical rupture
Protocol: Late-stage parasites (> 40 h post invasion) were enriched by magnet separation (MACS; Miltenyi Biotec) and allowed to develop to fully segmented schizont-stage parasites. To prevent schizont rupture and merozoites release, control parasites were incubated with 1 μM compound 1 (C1). […] Filtrate containing purified merozoites was immediately added to fresh erythrocytes (70%–80% hematocrit), incubated in a shaker (1,100 rpm) at 37°C for 20 min to allow invasion of host cells, and then diluted to 2% hematocrit. After 24 h incubation at 37°C, invasion was evaluated by measuring parasitemia by microscopy (Giemsa-stained thin smears) and flow cytometry (100,000 cells counted with FACSCalibur, BD).

P. berghei = assay: Peters' 4-day suppressive test for P. berghei infection in mice; format: in vivo, Plasmodium berghei; conditions: 4 days
Protocol: For results shown in Figure 1 A male Swiss mice were infected intraperitoneally (IP) with 1 × 10^6 P. berghei ANKA-parasitised red blood cells withdrawn from a previously infected donor mouse. Test compounds were prepared in a vehicle consisting of 10% DMSO/90% Solutol (5% Solutol® HS-15 in 0.9% saline). […] Peripheral blood samples were taken 24 h after administration of the last dose, and parasitemia was measured by microscopic analysis of Giemsa-stained blood smears. Parasitemia values were averages for 6 mice per group and are expressed as percent parasitemia. For results shown in Figure 4A ‘donor’ female Swiss mice were infected intraperitoneally (IP) with blood stage P. berghei parasites constitutively expressing GFP (P. berghei ANKA GFPcon 259cl2 ([Franke-Fayard et al., 2004]). Three days later, groups of 4 ‘acceptor’ Swiss mice were infected intravenously (IV) with 1 × 10^7 parasitised erythrocytes from the ‘donor’ mice. Two h post infection, experimental mice (4 per cohort) were left untreated (control mice) or treated orally on 4 consecutive days with test drugs formulated in 20% DMSO/60% PG/20% water (v/v/v) or chloroquine dissolved in water. […] Peripheral blood samples were taken 12 h after the last treatment, and parasitemia measured by flow cytometry (proportion of GFP-positive cells in 100,000 recorded events using FACSCalibur, BD) and microscopic analysis of Giemsa-stained blood smears. Parasitemia values were averages for 4 mice per group and are expressed as percent parasitemia.

[4] = Pharmacokinetic attributes (no method given); conditions: in vivo
[5] = target: T3, recombinant PMX protein (rPMX) (Plasmodium falciparum, UniProt Q8IAS0); assay: biochemical
Target sequence in this assay (Q8IAS0 222-573): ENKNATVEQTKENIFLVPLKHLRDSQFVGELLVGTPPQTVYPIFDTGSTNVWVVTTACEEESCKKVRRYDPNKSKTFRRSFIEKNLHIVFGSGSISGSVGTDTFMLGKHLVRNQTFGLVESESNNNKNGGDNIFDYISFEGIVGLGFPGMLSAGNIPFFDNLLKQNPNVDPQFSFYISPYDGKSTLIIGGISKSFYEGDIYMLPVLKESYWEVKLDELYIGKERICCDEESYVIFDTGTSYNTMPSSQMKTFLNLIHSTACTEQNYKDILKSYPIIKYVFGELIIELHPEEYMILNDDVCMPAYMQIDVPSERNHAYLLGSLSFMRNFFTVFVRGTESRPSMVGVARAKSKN
Protocol: All wells were backfilled to 200 nL DMSO such that it remains constant across the assay plates (1% final). IC50 values were calculated by Dotmatics 5.3 and Spotfire 7.11.1 software using a nonlinear regression four-parameter fit analysis. The equation used is sigmoidal dose response (variable slope), Y = bottom + (top − bottom)/(1+10((logEC50 − X) × Hill Slope)). Compound Ki values were calculated from the IC50s using the Cheng-Prusoff equation, Ki = IC50/(1 + [S]/Km).
All compound potency assays were conducted in 20 μl total volume. For each assay, 10 μl of recombinant enzymes in respective assay buffers (Table) were dispensed into compound containing assay plates using a Multidrop Combi dispenser and allowed to incubate for 15 min. The reactions were started with a further 10 μl addition of FRET peptide substrates and reactions incubated at 37 °C for various times (Table).Samples were excited at 340 nm and fluorescence emission measured at 492 nm using an Envision fluorescence plate reader (Perkin-Elmer).

[6] = target: T3, recombinant PMX protein (rPMX); format: biochemical, P. falciparum; design: full-length enzyme with prodomain and catalytic domain (pro-cat); 8xHis (C); made in house; host or cells: Spodoptera frugiperda (sf21) insect cells, baculovirus, secreted; compound added to the expression culture; conditions: insect cell expression
Target sequence in this assay (Q8IAS0 27-573): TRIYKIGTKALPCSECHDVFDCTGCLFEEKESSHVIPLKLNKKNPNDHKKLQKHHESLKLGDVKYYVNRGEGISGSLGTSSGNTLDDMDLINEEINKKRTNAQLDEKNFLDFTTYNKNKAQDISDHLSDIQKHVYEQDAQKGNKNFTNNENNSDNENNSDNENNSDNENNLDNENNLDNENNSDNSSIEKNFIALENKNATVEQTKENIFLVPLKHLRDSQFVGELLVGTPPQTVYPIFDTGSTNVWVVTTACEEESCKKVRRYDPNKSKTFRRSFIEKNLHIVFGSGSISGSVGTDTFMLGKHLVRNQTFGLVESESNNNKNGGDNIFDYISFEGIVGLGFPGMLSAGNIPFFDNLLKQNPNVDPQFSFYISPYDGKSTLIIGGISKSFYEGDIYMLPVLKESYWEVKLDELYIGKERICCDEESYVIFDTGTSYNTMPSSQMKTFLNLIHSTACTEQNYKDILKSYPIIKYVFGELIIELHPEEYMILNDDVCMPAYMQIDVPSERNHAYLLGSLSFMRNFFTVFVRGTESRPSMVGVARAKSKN

T1 sequence (Q8I6Z5 whole entry): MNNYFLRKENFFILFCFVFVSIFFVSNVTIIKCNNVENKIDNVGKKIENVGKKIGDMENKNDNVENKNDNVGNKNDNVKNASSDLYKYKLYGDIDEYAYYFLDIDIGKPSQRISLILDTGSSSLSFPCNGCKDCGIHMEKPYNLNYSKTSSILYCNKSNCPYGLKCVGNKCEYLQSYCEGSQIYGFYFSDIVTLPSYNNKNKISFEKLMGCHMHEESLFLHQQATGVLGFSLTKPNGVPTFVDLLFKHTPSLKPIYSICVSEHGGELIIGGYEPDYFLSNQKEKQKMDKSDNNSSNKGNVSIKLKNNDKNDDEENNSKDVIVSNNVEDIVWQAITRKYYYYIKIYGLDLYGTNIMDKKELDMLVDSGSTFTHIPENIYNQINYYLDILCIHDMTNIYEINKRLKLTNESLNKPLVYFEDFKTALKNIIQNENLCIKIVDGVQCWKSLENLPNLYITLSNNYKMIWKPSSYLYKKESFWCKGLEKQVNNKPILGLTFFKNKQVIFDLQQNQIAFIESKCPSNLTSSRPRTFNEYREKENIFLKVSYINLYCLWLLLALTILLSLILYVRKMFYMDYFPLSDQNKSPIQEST
T2 sequence (Q8IAS0 222-573): as the sequence (Q8IAS0 222-573) above

Row | Structure (SMILES) | Ki [1] [µM] | EC50 (HepG2 cells) [µM] | effect on thermal stability of PMIX (PMIX) | effect on thermal stability of PMX (PMX) | change of EC50 when PMIX expression was decreased [2] | stage of arrest of blood-stage development (3D7 parasite cultures) | ability of merozoites to invade erythrocytes [3] | in vivo activity against P. berghei infection (P. berghei; intraperitoneal, 20 mpk q.d., Swiss mice) | pharmacokinetic attributes [4] | IC50 [5] [pM] | Ki [5] [pM] | cleavage of rPMX into catalytic and pro-domain [6] | in vivo efficacy against P. berghei (P. berghei; oral, 20 mg/kg (mpk) b.i.d.)
1 | CC(NC(=O)c1cccc(C(c2ccccc2)N2C(=N)NC(C)(C(C)C)CC2=O)c1)c1ccccc1 (racemic) [WM4] | 19.8 ± 0.5 | 14.2 ± 2.3 | no effect on the thermal stability of PMIX | stabilized PMX | no significant change | arrested at late schizont stage | significantly less able to invade | partial efficacy | did not have desirable pharmacokinetic attributes | 810 | 500 ± 200 | cleavage was inhibited | 
2 | CCC1(CC)CC(=O)N([C@@H]2CCOc3ccc(C(=O)N[C@H]4CC(C)(C)Oc5ccccc54)cc32)C(=N)N1 [WM382] | 13.4 ± 0.62 | 24.8 ± 2.2 | significantly more thermostable | significantly more thermostable | significantly more sensitive | arrested at late schizont stage | unable to invade erythrocytes |  |  | 60 | 35 ± 8 | cleavage was inhibited | significantly greater in vivo efficacy than WM4 and WM5
